Tests used:
JAK1 = target: T1, JAK1 (Homo sapiens, UniProt P23458); test: Biochemical JAK1 kinase assay (LanthaScreen); settings: for Ki: read-out: JAK 1 (pKi) (converted)
T1 construct: GST; purchased Life Technologies
Summary of the method: (§1)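 GST-tagged JAK enzyme and GFP-STAT1 peptide preincubated with compound 1 h, then ATP added; 1 h kinase reaction at ambient temperature, pH 7.5 HEPES/MgCl2 buffer, 1% DMSO. Tb-anti-pSTAT1 (pTyr701) TR-FRET, 520/495 nm ratio; IC50 from 4-parameter fit, converted to pKi via Cheng-Prusoff.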

JAK2 = target: T2, JAK2 (Homo sapiens, UniProt O60674); test: Biochemical JAK2 kinase assay (LanthaScreen); settings: for Ki: read-out: JAK 2 (pKi) (converted)
T2 construct: GST; purchased Life Technologies
T2 sequence (O60674 whole entry): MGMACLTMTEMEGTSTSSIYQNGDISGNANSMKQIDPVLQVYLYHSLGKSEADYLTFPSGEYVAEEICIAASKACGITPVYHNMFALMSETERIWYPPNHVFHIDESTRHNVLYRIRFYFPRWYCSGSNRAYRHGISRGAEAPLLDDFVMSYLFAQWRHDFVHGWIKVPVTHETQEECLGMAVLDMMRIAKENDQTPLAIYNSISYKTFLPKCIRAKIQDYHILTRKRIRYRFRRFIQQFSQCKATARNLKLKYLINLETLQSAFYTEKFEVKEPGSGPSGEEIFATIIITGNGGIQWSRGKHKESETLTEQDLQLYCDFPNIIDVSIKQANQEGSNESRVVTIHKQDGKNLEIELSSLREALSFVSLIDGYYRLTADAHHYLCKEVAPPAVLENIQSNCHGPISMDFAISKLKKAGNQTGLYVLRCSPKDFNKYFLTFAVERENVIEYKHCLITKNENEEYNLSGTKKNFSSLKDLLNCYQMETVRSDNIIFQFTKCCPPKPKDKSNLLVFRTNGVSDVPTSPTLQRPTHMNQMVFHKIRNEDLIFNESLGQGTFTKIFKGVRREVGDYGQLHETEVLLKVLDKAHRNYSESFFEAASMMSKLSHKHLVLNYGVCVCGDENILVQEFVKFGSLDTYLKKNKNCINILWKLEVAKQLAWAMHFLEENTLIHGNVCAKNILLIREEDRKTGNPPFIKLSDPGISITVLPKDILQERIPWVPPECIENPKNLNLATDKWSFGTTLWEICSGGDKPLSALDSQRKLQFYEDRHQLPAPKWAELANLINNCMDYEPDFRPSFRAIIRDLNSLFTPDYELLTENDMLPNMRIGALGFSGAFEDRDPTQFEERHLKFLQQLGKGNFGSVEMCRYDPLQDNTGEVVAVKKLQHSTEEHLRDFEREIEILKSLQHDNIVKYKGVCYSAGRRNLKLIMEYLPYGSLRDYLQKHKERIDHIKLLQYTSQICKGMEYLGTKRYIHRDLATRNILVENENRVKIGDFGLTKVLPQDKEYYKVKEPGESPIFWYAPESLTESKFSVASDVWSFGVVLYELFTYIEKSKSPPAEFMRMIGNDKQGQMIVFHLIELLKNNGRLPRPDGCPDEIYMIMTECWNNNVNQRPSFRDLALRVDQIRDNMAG
Summary of the method: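 GST-tagged recombinant JAK2 pre-incubated 1 h at ambient temperature with compound and GFP-STAT1 peptide in HEPES pH 7.5/MgCl2 buffer, then ATP added for a 1 h reaction with 1% DMSO. TR-FRET read after EDTA and Tb-anti-pSTAT1 (pTyr701) addition; IC50 from 4-parameter fit, converted to pKi by Cheng-Prusoff.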

Tyk2 = target: T3, Tyk2 (Homo sapiens, UniProt P29597); test: Biochemical Tyk2 kinase assay (LanthaScreen); settings: for Ki: read-out: Tyk 2 (pKi) (converted)
T3 construct: GST; purchased Life Technologies
T3 sequence (P29597 whole entry): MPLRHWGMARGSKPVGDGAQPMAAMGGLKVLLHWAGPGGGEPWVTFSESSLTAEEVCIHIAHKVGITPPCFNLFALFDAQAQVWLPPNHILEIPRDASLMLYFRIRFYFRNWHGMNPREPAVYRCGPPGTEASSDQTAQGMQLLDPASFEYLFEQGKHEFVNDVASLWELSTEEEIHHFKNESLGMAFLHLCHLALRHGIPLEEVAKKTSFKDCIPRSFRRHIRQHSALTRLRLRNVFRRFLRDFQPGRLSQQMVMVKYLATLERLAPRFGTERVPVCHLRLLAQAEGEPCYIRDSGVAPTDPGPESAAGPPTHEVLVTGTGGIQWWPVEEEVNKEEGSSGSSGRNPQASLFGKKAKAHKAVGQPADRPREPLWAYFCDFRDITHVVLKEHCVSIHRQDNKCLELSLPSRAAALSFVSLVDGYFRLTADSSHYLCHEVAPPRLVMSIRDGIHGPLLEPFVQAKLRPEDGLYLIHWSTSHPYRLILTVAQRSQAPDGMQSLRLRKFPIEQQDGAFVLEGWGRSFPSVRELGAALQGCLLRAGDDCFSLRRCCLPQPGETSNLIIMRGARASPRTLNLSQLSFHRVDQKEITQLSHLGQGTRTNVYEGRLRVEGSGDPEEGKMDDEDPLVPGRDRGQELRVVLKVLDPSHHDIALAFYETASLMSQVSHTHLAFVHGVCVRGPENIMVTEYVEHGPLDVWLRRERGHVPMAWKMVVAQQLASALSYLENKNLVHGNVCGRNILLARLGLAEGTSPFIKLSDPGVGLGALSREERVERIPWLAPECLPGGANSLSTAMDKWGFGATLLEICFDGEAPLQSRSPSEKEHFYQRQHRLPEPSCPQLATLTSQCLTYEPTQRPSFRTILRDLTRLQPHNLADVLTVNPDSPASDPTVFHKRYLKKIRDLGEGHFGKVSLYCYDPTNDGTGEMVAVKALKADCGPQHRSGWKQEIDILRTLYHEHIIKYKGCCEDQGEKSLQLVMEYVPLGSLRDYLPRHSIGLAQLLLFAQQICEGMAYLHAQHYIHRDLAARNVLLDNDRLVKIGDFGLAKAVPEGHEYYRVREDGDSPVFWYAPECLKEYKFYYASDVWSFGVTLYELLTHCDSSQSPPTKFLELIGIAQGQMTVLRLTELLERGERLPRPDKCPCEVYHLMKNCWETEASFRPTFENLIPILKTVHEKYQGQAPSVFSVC
Summary of the method: as §1

[1] = system: IL-2 stimulated pSTAT5 in Tall-1 T cells; test: Cellular JAK3 potency assay: inhibition of IL-2 stimulated pSTAT5 in Tall-1 T cells; type: cell-based, human; settings: for IC50: Homo sapiens, TALL-1, IL-2 stimulated pSTAT5, Tall-1 T cells, read-out: Tall-1 (pIC50) (converted); for Tall-1 (pIC50): IL-2 stimulated pSTAT5, Tall-1 T cells
Summary of the method: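 In human Tall-1 T cells, IL-2 (300 ng/ml final, 30 min) drives STAT5 phosphorylation after a 1 h compound pretreatment. Lysates are assayed for pSTAT5 by AlphaLisa, and IC50 derived from signal versus concentration is expressed as pIC50.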

JAK3 = target: T4, JAK3 (Homo sapiens, UniProt P52333); test: Biochemical JAK3 kinase assay (LanthaScreen); parameters: GST; purchased Life Technologies; settings: for Ki: read-out: JAK 3 (pKi) (converted); for JAK3 (pKi)-JAK1 (pKi): selectivity JAK3 over JAK1, difference of pKi
T4 sequence (P52333 1-1124): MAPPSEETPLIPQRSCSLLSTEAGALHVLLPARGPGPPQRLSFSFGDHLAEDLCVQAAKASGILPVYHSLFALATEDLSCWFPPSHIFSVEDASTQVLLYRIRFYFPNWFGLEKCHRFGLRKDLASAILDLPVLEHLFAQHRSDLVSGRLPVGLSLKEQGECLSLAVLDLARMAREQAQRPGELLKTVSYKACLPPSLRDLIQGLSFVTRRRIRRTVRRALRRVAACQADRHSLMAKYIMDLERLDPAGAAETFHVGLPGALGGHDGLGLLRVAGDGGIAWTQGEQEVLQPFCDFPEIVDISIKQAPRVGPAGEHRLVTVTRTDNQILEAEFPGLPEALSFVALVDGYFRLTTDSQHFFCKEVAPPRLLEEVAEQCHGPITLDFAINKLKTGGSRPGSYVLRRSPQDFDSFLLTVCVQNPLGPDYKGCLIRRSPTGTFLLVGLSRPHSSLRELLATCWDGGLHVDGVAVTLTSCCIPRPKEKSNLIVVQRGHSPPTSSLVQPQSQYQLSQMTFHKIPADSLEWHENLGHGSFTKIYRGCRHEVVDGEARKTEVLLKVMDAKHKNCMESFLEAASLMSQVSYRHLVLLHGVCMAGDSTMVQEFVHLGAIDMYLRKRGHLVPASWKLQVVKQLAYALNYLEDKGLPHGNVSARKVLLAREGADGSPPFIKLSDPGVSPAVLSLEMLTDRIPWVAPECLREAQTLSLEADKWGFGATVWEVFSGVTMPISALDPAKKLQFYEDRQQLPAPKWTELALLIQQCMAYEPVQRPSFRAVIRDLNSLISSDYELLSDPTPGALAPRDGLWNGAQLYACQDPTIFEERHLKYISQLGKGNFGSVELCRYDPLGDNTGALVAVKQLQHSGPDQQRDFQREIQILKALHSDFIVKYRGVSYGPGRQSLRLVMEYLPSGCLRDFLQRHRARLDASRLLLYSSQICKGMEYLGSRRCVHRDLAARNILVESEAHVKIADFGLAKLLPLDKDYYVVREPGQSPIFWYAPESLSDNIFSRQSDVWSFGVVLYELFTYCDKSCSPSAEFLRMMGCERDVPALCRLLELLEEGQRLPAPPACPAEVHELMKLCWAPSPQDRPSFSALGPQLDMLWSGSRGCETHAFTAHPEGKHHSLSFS
Summary of the method: as §1

T1 sequence (P23458 whole entry): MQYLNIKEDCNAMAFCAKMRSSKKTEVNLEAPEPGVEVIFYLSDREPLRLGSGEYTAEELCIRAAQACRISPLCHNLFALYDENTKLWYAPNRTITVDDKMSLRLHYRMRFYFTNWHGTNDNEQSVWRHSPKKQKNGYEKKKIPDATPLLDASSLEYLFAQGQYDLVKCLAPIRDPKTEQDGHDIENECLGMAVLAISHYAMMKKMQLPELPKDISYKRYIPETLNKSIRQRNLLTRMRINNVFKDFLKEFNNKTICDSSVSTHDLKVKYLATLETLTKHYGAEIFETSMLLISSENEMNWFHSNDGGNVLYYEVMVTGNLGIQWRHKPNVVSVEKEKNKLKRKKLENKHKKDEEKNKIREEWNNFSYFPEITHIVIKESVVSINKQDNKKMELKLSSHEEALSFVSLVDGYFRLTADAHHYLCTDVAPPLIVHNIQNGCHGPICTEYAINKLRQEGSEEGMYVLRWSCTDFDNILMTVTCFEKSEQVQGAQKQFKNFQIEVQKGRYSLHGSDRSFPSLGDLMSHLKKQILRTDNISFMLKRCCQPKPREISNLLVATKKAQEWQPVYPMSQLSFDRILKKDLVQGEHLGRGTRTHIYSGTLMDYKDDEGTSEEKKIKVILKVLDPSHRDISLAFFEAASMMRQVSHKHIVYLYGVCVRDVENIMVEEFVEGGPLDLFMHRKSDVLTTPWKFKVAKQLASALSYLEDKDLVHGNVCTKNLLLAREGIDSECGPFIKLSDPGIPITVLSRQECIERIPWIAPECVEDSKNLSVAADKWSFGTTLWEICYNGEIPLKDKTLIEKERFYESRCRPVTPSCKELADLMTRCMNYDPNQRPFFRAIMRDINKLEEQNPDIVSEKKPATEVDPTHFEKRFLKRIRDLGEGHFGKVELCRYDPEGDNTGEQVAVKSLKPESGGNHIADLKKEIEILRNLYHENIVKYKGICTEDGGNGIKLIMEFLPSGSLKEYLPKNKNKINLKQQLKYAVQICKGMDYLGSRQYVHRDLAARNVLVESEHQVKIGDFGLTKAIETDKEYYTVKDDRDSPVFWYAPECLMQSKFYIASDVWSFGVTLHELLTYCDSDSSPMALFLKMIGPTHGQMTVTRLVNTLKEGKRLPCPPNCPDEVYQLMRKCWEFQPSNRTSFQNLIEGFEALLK

SMILES | Ki (JAK1) [nM] | Ki (JAK2) [nM] | Ki (Tyk2) [nM] | IC50 [1] [nM] | Ki (JAK3) [nM] | JAK3 (pKi)-JAK1 (pKi) (JAK3) | JAK 1 (pKi) (JAK1) | JAK 2 (pKi) (JAK2) | Tyk 2 (pKi) (Tyk2) | Tall-1 (pIC50) [1] | JAK 3 (pKi) (JAK3)
C=CC(=O)N1CC[C@H](Nc2cc(-c3ccc(O)cc3)cc3[nH]ncc23)[C@H](C)C1 [Compound 12-16] | 10 to 100 | 1 to 10 | > 100 | < 31.6 | 0.1 to 1 | B (a value of 2.3 to 3) |  |  |  |  | 
C=CC(=O)N1CC[C@@H](Nc2cc(-c3ccc(O)cc3)cc3[nH]ncc23)[C@H](C)C1 [Compound 12-17] | 10 to 100 | 1 to 10 | > 100 | < 31.6 | < 0.1 | B (a value of 2.3 to 3) |  |  |  |  | 
C=CC(=O)N1CC[C@@H](COc2cc(-c3ccc(O)cc3)cc3[nH]ncc23)C1 [Compound 12-20] |  |  |  |  |  | A (a value of 3 or above) | E (a pKi value of 7 or below (Ki of 100 nM or above)) | D (a pKi value between 7 and 8 (Ki between 100 nM and 10 nM)) | E (a pKi value of 7 or below (Ki of 100 nM or above)) | A (a pIC50 value≥7.5 (IC50≤32 nM)) | B (a pKi value between 9 and 10 (Ki between 1 nM and 0.1 nM))
CN(C)C/C=C/C(=O)N1CCC(COc2cc(-c3ccc(O)cc3)cc3[nH]ncc23)CC1 [Compound 12-26] | > 100 | 10 to 100 | > 100 | 200 to 1000 | 0.1 to 1 | B (a value of 2.3 to 3) |  |  |  |  | 
C=CC(=O)N1CCC(COc2cc(-c3ccc(O)cc3)cc3[nH]ncc23)CC1 [Compound 12-27] | > 100 | 10 to 100 | > 100 | < 31.6 | < 0.1 | A (a value of 3 or above) |  |  |  |  | 
C[C@@H]1C[C@H](Oc2cc(-c3ccc(O)cc3)cc3[nH]ncc23)CCN1C(=O)/C=C/CN(C)C [Compound 12-28] | > 100 | 1 to 10 | > 100 | 31.6 to 200 | < 0.1 | A (a value of 3 or above) |  |  |  |  | 
C=CC(=O)N1CC[C@@H](Oc2cc(-c3ccc(O)cc3)cc3[nH]ncc23)C[C@H]1C [Compound 12-29] | > 100 | 10 to 100 | > 100 | < 31.6 | 0.1 to 1 | A (a value of 3 or above) |  |  |  |  | 
C=CC(=O)N1CC[C@@H](Oc2cc(-c3ccc(O)cc3)cc3[nH]ncc23)C[C@@H]1C [Compound 12-30] | > 100 | 1 to 10 | > 100 | < 31.6 | < 0.1 | A (a value of 3 or above) |  |  |  |  | 
C=CC(=O)N1CC[C@H](Oc2cc(-c3ccc(O)cc3)cc3[nH]ncc23)C[C@@H]1C [Compound 12-31] | > 100 | 1 to 10 | > 100 | 31.6 to 200 | < 0.1 | A (a value of 3 or above) |  |  |  |  | 
C=CC(=O)N1CC[C@H](Oc2cc(-c3ccc(O)cc3)cc3[nH]ncc23)C[C@H]1C [Compound 12-32] | > 100 | 10 to 100 | > 100 | < 31.6 | < 0.1 | A (a value of 3 or above) |  |  |  |  | 
C=CC(=O)N1C[C@@H](Oc2cc(-c3ccc(O)cc3)cc3[nH]ncc23)CC[C@@H]1C [Compound 12-33] | > 100 | > 100 | > 100 | 31.6 to 200 | 0.1 to 1 | A (a value of 3 or above) |  |  |  |  | 
C=CC(=O)N1CC(CSc2cc(-c3ccc(O)cc3)cc3[nH]ncc23)C1 [Compound 12-34] | > 100 | > 100 | > 100 | < 31.6 | 0.1 to 1 | B (a value of 2.3 to 3) |  |  |  |  | 
C=CC(=O)N1CC(Sc2cc(-c3ccc(O)cc3)cc3[nH]ncc23)C1 [Compound 12-35] | > 100 | > 100 | > 100 | 31.6 to 200 | 0.1 to 1 | B (a value of 2.3 to 3) |  |  |  |  | 
CN(C)C/C=C/C(=O)N1CC(F)(C2(Oc3cc(-c4ccc(O)cc4)cc4[nH]ncc34)CC2)C1 [Compound 12-36] | 10 to 100 | > 100 | > 100 | < 31.6 | < 0.1 | A (a value of 3 or above) |  |  |  |  | 
CN(C)C/C=C/C(=O)N1CC(OCc2cc(-c3ccc(O)cc3)cc3[nH]ncc23)C1 [Compound 12-38] | > 100 | > 100 | > 100 | 31.6 to 200 | < 0.1 | A (a value of 3 or above) |  |  |  |  | 
C=CC(=O)N1CC(OCc2cc(-c3ccc(O)cc3)cc3[nH]ncc23)C1 [Compound 12-39] | > 100 | > 100 | > 100 | < 31.6 | 0.1 to 1 | A (a value of 3 or above) |  |  |  |  | 
C=CC(=O)N1CCC(C#N)(C(=O)Nc2cc(-c3ccc(O)cc3)cc3[nH]ncc23)CC1 [Compound 12-41] | > 100 | > 100 | > 100 | < 31.6 | 0.1 to 1 | A (a value of 3 or above) |  |  |  |  | 
C=CC(=O)N1CCSC(C(=O)Nc2cc(-c3ccc(O)cc3)cc3[nH]ncc23)C1 (stereo not drawn) [Compound 12-42] | > 100 | 10 to 100 | > 100 | 31.6 to 200 | 0.1 to 1 | B (a value of 2.3 to 3) |  |  |  |  | 
C=CC(=O)N1CCSC(C(=O)Nc2cc(-c3ccc(O)cc3)cc3[nH]ncc23)C1 (stereo not drawn) [Compound 12-43] |  |  |  |  | < 0.1 | A (a value of 3 or above) | E (a pKi value of 7 or below (Ki of 100 nM or above)) | D (a pKi value between 7 and 8 (Ki between 100 nM and 10 nM)) | E (a pKi value of 7 or below (Ki of 100 nM or above)) | A (a pIC50 value≥7.5 (IC50≤32 nM)) | 
C=CC(=O)N1CCS[C@@H](C(=O)Nc2cc(-c3ccc(O)cc3)cc3[nH]ncc23)C1 [Compound 12-44] | > 100 | 10 to 100 | > 100 | 31.6 to 200 | < 0.1 | A (a value of 3 or above) |  |  |  |  | 
C=CC(=O)N1CCS(=O)(=O)C(C(=O)Nc2cc(-c3ccc(O)cc3)cc3[nH]ncc23)C1 (stereo not drawn) [Compound 12-45] | > 100 | > 100 | > 100 | 200 to 1000 | < 0.1 | A (a value of 3 or above) |  |  |  |  | 
C=CC(=O)N1CC(C(=O)Nc2cc(-c3ccc(O)cc3)cc3[nH]ncc23)C1 [Compound 12-46] | > 100 | 10 to 100 | > 100 | 31.6 to 200 | < 0.1 | A (a value of 3 or above) |  |  |  |  | 
C=CC(=O)N1CC(C#N)(C(=O)Nc2cc(-c3ccc(O)cc3)cc3[nH]ncc23)C1 [Compound 12-47] | > 100 | > 100 | > 100 | 31.6 to 200 | 0.1 to 1 | A (a value of 3 or above) |  |  |  |  | 
